{"source": "patent US20220105119A1", "about": "“DELIVERY OF AEROSOLIZED MICROMOLAR COMPOSITION CONCENTRATIONS” (Amcyte Pharma Inc., priority 2020, published 2022)", "key": {"[1]": {"details": "cited from earlier work; for Maximum Plasma Concentration: single oral dose; for Time elapsed to reach maximum concentration: after ingestion"}, "[2]": {"test_system": "flaviviruses (yellow fever virus, West Nile virus, dengue virus, Japanese encephalitis virus, tick-borne encephalitis virus)", "details": "other viruses; cited from earlier work"}, "[3]": {"details": "in vivo; cited from earlier work"}, "SARS CoV 2 [4]": {"test_system": "SARS CoV 2", "assay_type": "cell-based"}, "[5]": {"details": "Ali 2011; cited from earlier work"}, "[6]": {"assay": "Related substances by HPLC after 1 week at 50° C.", "assay_type": "physicochemical", "details": "formulations after 1 week at 50° C., drug substance lot as used", "from_the_text": "HPLC method used renders chromatograms like the one depicted in FIG. 1 for drug substance and drug product. […] The rest of the peaks may be attributed to related substances. Related substances are substances structurally similar to the drug substance. Some of them come from synthesis impurities and are not increased during shelf life because they cannot form from degradation of the drug substance. Others are degradation products. […] (an extremely high stress condition for an MDI)."}, "[7]": {"details": "calculated"}, "SARS CoV 2 [8]": {"test_system": "SARS CoV 2", "details": "cited from earlier work"}}, "note": "Several values for one entry are separate records, joined by “and”; a condition that tells them apart may be missing. Equal values may be shown once. Read-outs that look alike come from different tables or passages of the source."}
{"substance": "Ivermectin", "values": [{"measurement": "Maximum Plasma Concentration", "setting": "[1]; 150 μg/kg (fasted), Baraka 1996", "value": "aprox. 55 ng/mL"}, {"measurement": "Maximum Plasma Concentration", "setting": "[1]; 200 μg/kg (fed), Schulz 2018", "value": 40.1, "unit": "ng/mL"}, {"measurement": "Maximum Plasma Concentration", "setting": "[1]; 600 μg/kg (children, fed), Schulz 2019", "value": 66.1, "unit": "ng/mL"}, {"measurement": "Maximum Plasma Concentration", "setting": "[1]; 30 mg (fed), Guzzo 2002", "value": 260.5, "unit": "ng/mL"}, {"measurement": "Maximum Plasma Concentration", "setting": "[1]; 60 mg (fasted), Guzzo 2002", "value": "186.2 ng/mL and 165.2 to 186.2 ng/mL"}, {"measurement": "Maximum Plasma Concentration", "setting": "[1]; 90 mg (fasted), Guzzo 2002", "value": 158.1, "unit": "ng/mL"}, {"measurement": "Maximum Plasma Concentration", "setting": "[1]; 120 mg (fasted), Guzzo 2002", "value": 247.8, "unit": "ng/mL"}, {"measurement": "Time elapsed to reach maximum concentration", "setting": "[1]; adults", "value": "4 to 5", "unit": "h"}, {"measurement": "Time elapsed to reach maximum concentration", "setting": "[1]; children", "value": "6 to 7", "unit": "h"}, {"measurement": "concentration range of antiviral activity", "setting": "[2]", "value": "0.003 to 10", "unit": "µM"}, {"measurement": "Oral bioavailability", "setting": "[3]", "value": "40-50%"}, {"measurement": "IC50 as mass concentration", "setting": "SARS CoV 2 [4]", "value": 1.7, "unit": "µg/mL"}, {"measurement": "forced degradation studies", "setting": "[5]", "value": "susceptible to oxidation and hydrolysis"}, {"measurement": "Related substance RRT 1.42", "setting": "[6]; alkaline degradation product", "value": 2.9, "unit": "% total HPLC area"}, {"measurement": "Related substance RRT 0.39", "setting": "[6]", "value": 0.3, "unit": "% total HPLC area"}, {"measurement": "Related substance RRT 0.40", "setting": "[6]", "value": 0.3, "unit": "% total HPLC area"}, {"measurement": "Related substance RRT 0.46", "setting": "[6]", "value": 0.5, "unit": "% total HPLC area"}, {"measurement": "Related substance RRT 0.78", "setting": "[6]", "value": 0.1, "unit": "% total HPLC area"}, {"measurement": "Related substance RRT 1.52", "setting": "[6]", "value": 0.7, "unit": "% total HPLC area"}, {"measurement": "concentration in nasal airway surface liquid", "setting": "[7]; 100 μg per nostril in a 50-μL shot, liquid volume 50-375 μL", "value": 533, "unit": "µg/mL"}, {"measurement": "immediate concentration in saliva", "setting": "[7]; one 50-μL shot containing 100 μg, 0.8 mL saliva", "value": 125, "unit": "µg/mL"}, {"measurement": "IC50", "setting": "SARS CoV 2 [8]; Vero cells culture, read-out: IC50, SARS CoV 2 replication", "value": "2000 nM and ~2000 nM"}, {"measurement": "reduction in viral RNA in reference to placebo", "setting": "SARS CoV 2 [8]; at 5 μM, 48 hours after one single application", "value": "5,000 fold"}, {"measurement": "viral RNA reduction", "setting": "SARS CoV 2 [8]; at a concentration of (equivalent to ca. 4.4 μg/mL)", "value": "ca. 5,000 times"}]}
